In patent publication US10730851B2, “Polymorph of triaryldimethylpiperazine dihydrochloride and preparation method and application thereof” (priority 2016, dated 2020):
Counter-ions that a name gives are not always drawn. Like-named read-outs stand apart in the source and are kept apart here.

Key:
[1] = Dynamic moisture adsorption; format: physicochemical
[2] = Dynamic solubility test in water, SGF, FeSSIF, FaSSIF; format: physicochemical; settings: for pH in clear solution: dihydrochloride
Method: The dynamic solubility of a free base, polymorph forms B, P, F, J and O in water or a biological medium such as Stimulated Gastric Fluid (SGF), Fed State Simulated Intestinal Fluid (FeSSIF) or Fasted State Simulated Intestinal Fluid (FaSSIF) is determined.
0.2 g sodium chloride and 0.1 g Triton X-100 is weighed and placed into a 100 mL volumetric flask. Purified water is added to dissolve. A stir is performed until the solid is completely dissolved. About 135 μL concentrated hydrochloric acid solution (37%, […]) is added, then the pH is adjusted to 1.8 with […] hydrochloric acid or 1 mmoL/L sodium hydroxide. Finally, the volume is fixed with purified water to obtain Stimulated Gastric Fluid (SGF) for later use.
Each of 0.41 mL glacial acetic acid, 0.20 g sodium hydroxide and 0.59 g sodium chloride is weighed and placed to a 50 mL volumetric flask. About 48 mL purified water is added to dissolve, the pH is adjusted to 5.0 with 1 mmoL/L hydrochloric acid or 1 mmoL/L sodium hydroxide, and the volume is fixed with purified water. Then 0.56 g of Simulated Intestinal Fluid powder (SIF powder for short, which is composed of […] with a molar ratio of 4:1) is added, stirred and ultrasonically dissolved to obtain Fed State Simulated Intestinal Fluid (FeSSIF) for later use.
Each of 0.17 g of anhydrous sodium dihydrogen phosphate (NaH2PO4), 0.021 g of sodium hydroxide and 0.31 g of sodium chloride is weighed and placed into a 50 mL volumetric flask. About 48 mL of purified water is added to dissolve, the pH is adjusted to 6.5 with 1 mmoL/L hydrochloric acid or 1 mmoL/L sodium hydroxide, and the volume is fixed with purified water. 0.11 g of SIF powder is added, stirred and ultrasonically dissolved to obtain Fasted State Simulated Intestinal Fluid (FaSSIF) for later use.
Each 30 mg of the free base, and polymorph forms B, P, F, J and O are weighed. 3 mL of purified water, Stimulated Gastric Fluid (SGF), Fed State Simulated Intestinal Fluid (FeSSIF) or Fasted State Simulated Intestinal Fluid (FaSSIF)) is added and oscillated at room temperature. 0.6 mL of suspension is taken each time at a set time point, filtered and separated with a 0.45 μm nylon filter membrane, then XRPD characterization is performed on the solid sample, and the concentration in the clear solution is measured by HPLC.

[3] = Relative bioavailability test; format: in vivo, SPF-grade SD rats; settings: rat, in vivo, po
Method: HPLC-MS/MS method is used to detect the blood drug concentration of target drugs in SPF-grade SD rats, and the relative bioavailability of 0.5% CMC-Na suspension of a free base and 0.5% CMC-Na solution of a polymorph form P are calculated and compared.
60.46 mg of a free base is accurately weighed and placed into a 15 mL centrifuge tube, 12 mL of 0.5% CMC-Na solution is measured and added into the centrifuge tube with a measuring cylinder, vortexed for 5 min, and ultrasonically dispersed for 15 min to obtain 0.5% CMC-Na suspension of free base with a concentration of 5.04 mg/ml, which is currently formulated when using and vibrated at any time during administration.
60.05 mg of a polymorph form P is accurately weighed and placed into a 15 mL centrifuge tube, 12 mL of 0.5% CMC-Na solution is measured and added into the centrifuge tube with a measuring cylinder, vortexed for 5 min, and ultrasonically dispersed for 15 min to obtain 0.5% CMC-Na solution of 5.00 mg/mL polymorph form P, which is currently formulated when using.
Twelve SPF-grade SD rats are selected and randomly divided into a free base group and a polymorph form P group with 6 rats in each group (both male and female). Animals are fasted for 12 h but have free access to water. Weighing is performed and, the administration volume of each rat is calculated according to the animal weight, so that the administration dose is 20 mg/kg·bw. During administration, the drugs are each administrated by gavage, and 0.5% CMC-Na suspension/solution of the above two target drugs are extracted by 2 mL syringe respectively. The gavage needle is inserted into the stomach from the corner of the rat's mouth and pushed the solution thereto.
Blood is collected from the fundus venous plexus of rats at 0.2 mL before (0 h) and 0.5, 1, 2, 4, 6, 8, 12 and 24 h after administration, anticoagulated with 300 IU/mL heparin (1:20) and centrifuged (3000 r/min) for 15 min. After plasma separation, the blood drug concentration of the target drug is determined by HPLC-MS/MS.
Referring to the above-mentioned bioavailability test of the polymorph form P, the bioavailability tests of polymorph forms F, O, B and J are conducted respectively. Different from the bioavailability test of the polymorph form P, rats are given 0.5% CMC-Na solution of the polymorph form F, O, B or J by gavage respectively. Other operations are the same as the above bioavailability test.

Rough solubility test = format: physicochemical; settings: water, thermodynamic from solid
Method: 2.0 mg of a free base and 2.0 mg of polymorph forms B, F, P, J and O are respectively taken and placed in 3.0 mL glass bottles. Then the solvent methanol is added step by step, and ultrasound is performed to observe whether the sample is completely dissolved. If the sample is still not completely dissolved after 2.0 mL of solvent is added, the test is stopped to measure the rough solubility of the free base, polymorph forms B, F, P, J and O in methanol respectively.
Using the same method, the rough solubility of the free base, polymorph forms B, P, F, J and O in other organic solvents or water listed in Table 6 are determined respectively.

CC1CCN(C(=O)c2ccc([C@H](c3cccc(O)c3)N3C[C@@H](C)N(Cc4cccc(F)c4)C[C@@H]3C)cc2)CC1 [Polymorph form B, (4-((R)-((2S,5R)-4-(3-fluorobenzyl)-(2,5-dimethylpiperazine-1-yl)(3-hydroxyphenyl)methyl)phenyl)(4-methylpiperidine-1-yl)methanone dihydrochloride]
Crystal form change under dynamic moisture adsorption [1]: change into amorphous
solubility compared with the free base [2]: significantly improved
pH in clear solution ([2]; FaSSIF, Time 1): 2.5
pH in clear solution ([2]; FaSSIF, Time 2): 2.6
pH in clear solution ([2]; FaSSIF, Time 4): 2.5
pH in clear solution ([2]; FaSSIF, Time 24): 2.3
pH in clear solution ([2]; FeSSIF, Time 1): 4.8
pH in clear solution ([2]; FeSSIF, Time 2): 4.8
pH in clear solution ([2]; FeSSIF, Time 4): 4.8
pH in clear solution ([2]; FeSSIF, Time 24): 4.6
pH in clear solution ([2]; SGF, Time 1): 1.5
pH in clear solution ([2]; SGF, Time 2): 1.5
pH in clear solution ([2]; SGF, Time 4): 1.5
pH in clear solution ([2]; SGF, Time 24): 1.5
pH in clear solution ([2]; Water, Time 1): 1.8
pH in clear solution ([2]; Water, Time 2): 1.8
pH in clear solution ([2]; Water, Time 4): 1.8
pH in clear solution ([2]; Water, Time 24): 1.7
solubility compared with the free base ([2]; pH 1.8): close to or slightly improved
bioavailability compared with free base [3]: better bioavailability than free base
Solubility (Rough solubility test): 6400 to 7200 µg/mL
